Source: ChEMBL document CHEMBL4219231, “Nε-Acryloyllysine Piperazides as Irreversible Inhibitors of Transglutaminase 2: Synthesis, Structure-Activity Relationships, and Pharmacokinetic Profiling” (J Med Chem, 2018)
In brackets after ≈: the same amount, converted by molar mass. Activity calls are given as the source filed them. The calls are words filed in the database; no cut-off is given here.

Key:
[1] = target: T1, Protein-glutamine gamma-glutamyltransferase (Homo sapiens, UniProt P21980); test: Irreversible inhibition of human TGase 2 using Z-Glu(HMC)-Gly-OH as substrate measured at 20 secs interval over 900 secs by fluorimetric assay
T1 sequence (P21980 whole entry): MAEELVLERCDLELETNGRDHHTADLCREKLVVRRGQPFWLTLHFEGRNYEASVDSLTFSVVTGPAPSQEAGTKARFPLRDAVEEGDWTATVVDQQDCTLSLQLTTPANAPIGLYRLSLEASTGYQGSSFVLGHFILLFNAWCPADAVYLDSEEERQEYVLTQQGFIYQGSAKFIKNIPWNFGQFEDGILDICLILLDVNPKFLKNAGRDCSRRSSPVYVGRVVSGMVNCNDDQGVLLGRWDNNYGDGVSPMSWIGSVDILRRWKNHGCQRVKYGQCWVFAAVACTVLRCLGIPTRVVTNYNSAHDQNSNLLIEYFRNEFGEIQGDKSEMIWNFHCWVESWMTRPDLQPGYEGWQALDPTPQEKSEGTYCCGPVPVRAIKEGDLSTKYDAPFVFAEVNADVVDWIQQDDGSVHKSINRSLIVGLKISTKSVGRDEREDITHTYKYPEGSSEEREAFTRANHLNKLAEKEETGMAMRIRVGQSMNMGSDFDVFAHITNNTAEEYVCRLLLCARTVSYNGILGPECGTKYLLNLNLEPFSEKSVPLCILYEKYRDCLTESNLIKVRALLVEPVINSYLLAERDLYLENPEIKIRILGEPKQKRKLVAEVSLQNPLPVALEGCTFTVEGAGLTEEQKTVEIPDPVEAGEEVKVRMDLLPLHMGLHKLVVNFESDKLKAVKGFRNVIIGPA

[2] = target: T1, Protein-glutamine gamma-glutamyltransferase; test: Inhibition of human TGase 2 using R-I-Cad/DMC as substrate preincubated for 5 mins followed by substrate addition measured at 30 secs interval over 900 secs by fluorescence anisotropy assay
[3] = Inhibition of guinea pig TGase 2 using F-Cad/DMC as substrate preincubated for 30 mins followed by substrate addition measured at 30 secs interval over 900 secs by fluorescence anisotropy assay; parameters: species or system Cavia porcellus
[4] = target: T2, Protein-glutamine gamma-glutamyltransferase (Homo sapiens) (UniProt P21980); test: Inhibition of human TGase 2 assessed as enzyme activity factor using R-I-Cad/DMC as substrate at 10 to 240 nM preincubated for 40 mins followed by substrate addition measured at 30 secs interval over 900 secs by fluorescence anisotropy assay; parameters: scale not given: the % may be the effect or the level left
T2 sequence (whole entry): T1 sequence (P21980 whole entry)

[5] = target: T2, Protein-glutamine gamma-glutamyltransferase (Homo sapiens); test: Inhibition of human TGase 2 assessed as enzyme activity factor using Z-Glu(HMC)-Gly-OH as substrate at 5 to 100 nM preincubated for 40 mins followed by substrate addition measured over 300 secs by fluorimetric assay; parameters: scale not given: the % may be the effect or the level left
[6] = n-octanol-phosphate buffer partition coefficient, log D of compound at pH 7.4 by 19F NMR analysis; format: physicochemical
[7] = Membrane retention, RM of the compound; format: physicochemical
[8] = Chromatographic hydrophobicity index in immobilized artificial membrane at pH 7.4 by HPLC method; format: ADME, cell membranes
[9] = in vitro; conditions: PAMPA
Description: Effective permeability of the compound by PAMPA assay

[10] = target: T1, Protein-glutamine gamma-glutamyltransferase; test: Inhibition of TGase 2 in human A375 cells using R-I-Cad/DMC as substrate preincubated for 5 mins followed by substrate addition measured at 30 secs interval over 900 secs by fluorescence anisotropy assay; format: cell-based
[11] = Thermodynamic solubility of the compound in 0.01 M phosphate buffer at pH 7.4 at 22 degC after 39 hrs by UPLC-DAD-MS analysis; format: physicochemical; conditions: read-out: Therm_solubility
[12] = target: T2, Protein-glutamine gamma-glutamyltransferase (Homo sapiens); test: Irreversible inhibition of human TGase 2 using Z-Glu(HMC)-Gly-OH as substrate up to 25 uM measured at 20 secs interval over 900 secs by fluorimetric assay
[13] = target: T1, Protein-glutamine gamma-glutamyltransferase; test: Reversible inhibition of human TGase 2 using Z-Glu(HMC)-Gly-OH as substrate measured at 20 secs interval over 900 secs by fluorimetric assay
[14] = organism: Homo sapiens; test: Selectivity index, ratio of Kinact/Ki for human TGase 2 to Kinact/Ki for human TGase 1
[15] = organism: Homo sapiens; test: Selectivity index, ratio of Kinact/Ki for human TGase 2 to Kinact/Ki for human TGase 3
[16] = organism: Homo sapiens; test: Selectivity index, ratio of Kinact/Ki for human TGase 2 to Kinact/Ki for human TGase 6
[17] = organism: Homo sapiens; test: Selectivity index, ratio of Kinact/Ki for human TGase 2 to Kinact/Ki for human Factor 13a
[18] = Metabolic stability in mouse liver microsomes assessed as parent compound remaining at 100 uM measured after 60 mins by HPLC-UV analysis; format: ADME, microsome; conditions: for Stability: microsomes, 1 h, 100 µM; for remaining at 1 h, 100 µM: liver microsomes, read-out: Stability
[19] = organism: Cavia porcellus; test: Irreversible inhibition of guinea pig TGase 2 using F-Cad/DMC as substrate at 30 uM preincubated for 30 mins followed by 1:100 dilution of compound-enzyme pre-incubated mixture at 30 secs interval over 900 secs by fluorescence anisotropy assay
[20] = Thermodynamic solubility of the compound in 0.01 M phosphate buffer at pH 7.4 at 22 degC after 26 hrs by UPLC-DAD-MS analysis; format: physicochemical; conditions: read-out: Therm_solubility
[21] = Drug metabolism in mouse liver microsomes assessed as metabolic transformation at pyridylpiperazine moiety at 100 uM measured after 60 mins by EPI-mass spectroscopy; format: ADME, microsome; conditions: 1 h

| SMILES | Ki [1] | IC50 [2] | IC50 [3] | logD [6] | Rm [7] | CHI [8] | Papp [9] | Stability [18] | also measured |
| --- | --- | --- | --- | --- | --- | --- | --- | --- | --- |
| C=CC(=O)NCCCC[C@H](NC(=O)Cc1ccccc1)C(=O)N1CCN(c2ccc([N+](=O)[O-])nc2)CC1 | 2450 nM | 90 nM | 150 nM |  |  |  |  |  | Activity [4]: 80%; Activity [5]: 74.4% |
| C=CC(=O)NCCCC[C@H](NC(=O)Cc1ccccc1)C(=O)N1CCN(c2ccc(F)nc2)CC1 | 10900 nM |  |  | 1.66 | 4% | 26.8 | 3.54 ×10⁻⁶ cm/s |  |  |
| C=CC(=O)NCCCC[C@H](NC(=O)Cc1ccccc1F)C(=O)N1CCN(c2cccc([N+](=O)[O-])n2)CC1 | 1980 nM |  |  | 2.25 | 12% | 30.7 | 8.74 ×10⁻⁶ cm/s |  |  |
| C=CC(=O)NCCCC[C@H](NC(=O)Cc1ccccc1)C(=O)N1CCN(c2cccc([N+](=O)[O-])n2)CC1 |  | 100 nM | 120 nM |  | 10% | 30.7 | 9.16 ×10⁻⁶ cm/s |  | IC50 [10]: 400 nM; solubility thermodynamic at 39 h [11]: 452 µM (≈ 230 µg/mL); inhibition [12]: Active; Ki [13]: 2260 nM; Selectivity Index [14]: 275 to 1920; Selectivity Index [15]: 275 to 1920; Selectivity Index [16]: 275 to 1920; Selectivity Index [17]: 275 to 1920 |
| C=CC(=O)NCCCC[C@H](NC(=O)Cc1ccc(F)cc1)C(=O)N1CCN(c2ccc([N+](=O)[O-])nc2)CC1 | 5020 nM |  |  | 1.85 | 9% | 28.3 | 1.97 ×10⁻⁶ cm/s | Stable |  |
| C=CC(=O)NCCCC[C@H](NC(=O)Cc1ccccc1)C(=O)N1CCN(c2ccccn2)CC1 |  | 340 nM | 310 nM |  |  |  |  | Unstable | Ki [13]: 8420 nM |
| C=CC(=O)NCCCC[C@H](NC(=O)Cc1ccccc1)C(=O)N1CCN(c2ccncc2)CC1 | 2550 nM |  |  |  | 31% | 25.4 | 0.51 ×10⁻⁶ cm/s | Stable |  |
| C=CC(=O)NCCCC[C@H](NC(=O)Cc1ccccc1)C(=O)N1CCN(C(=O)c2ccc(F)cc2)CC1 | 13400 nM |  |  | 1.6 | -3% | 25 | 3.05 ×10⁻⁶ cm/s |  | remaining at 1 h, 100 µM [18]: 85% |
| C=CC(=O)NCCCC[C@H](NC(=O)c1ccc(F)cc1)C(=O)N1CCN(c2ccc([N+](=O)[O-])nc2)CC1 | 14000 nM |  |  | 2.21 | 12% | 28.5 | 4.08 ×10⁻⁶ cm/s | Stable |  |
| C=CC(=O)NCCCC[C@H](NC(=O)Nc1ccc(F)cc1)C(=O)N1CCN(c2cccc(C)n2)CC1 |  |  | 460 nM | 0.47 | 11% | 34.3 | 12.5 ×10⁻⁶ cm/s |  |  |
| C=CC(=O)NCCCC[C@H](NC(=O)Cc1ccccc1)C(=O)N1CCN(c2ccc(C(F)(F)F)nc2)CC1 | 6770 nM |  |  | 2.13 | 11% | 31.8 | 8.98 ×10⁻⁶ cm/s | Stable |  |
| C=CC(=O)NCCCC[C@H](NC(=O)Cc1ccccc1)C(=O)N1CCN(Cc2ccc(F)cc2)CC1 | 7600 nM |  |  | 2.65 | 12% | 32 | 10.3 ×10⁻⁶ cm/s |  |  |
| C=CC(=O)NCCCC[C@H](NC(=O)Cc1ccccc1)C(=O)N1CCN(c2cccc(C)n2)CC1 |  | 310 nM | 270 nM |  | -1% | 29.4 | 8.77 ×10⁻⁶ cm/s |  | IC50 [10]: 790 nM; inhibition [19]: Active; remaining at 1 h, 100 µM [18]: 62%; Ki [13]: 5730 nM |
| C=CC(=O)NCCCC[C@H](NC(=O)c1ccc(F)cc1)C(=O)N1CCN(c2cccc(C)n2)CC1 |  |  |  | 0.28 | 16% | 31.4 | 12.7 ×10⁻⁶ cm/s |  |  |
| C=CC(=O)NCCCC[C@H](NC(=O)Cc1ccccc1)C(=O)N1CCN(c2cccc(F)n2)CC1 |  | 110 nM | 200 nM | 2.1 | 14% | 31.8 | 13.3 ×10⁻⁶ cm/s | Unstable | IC50 [10]: 1100 nM; solubility thermodynamic at 26 h [20]: 645 µM (≈ 311 µg/mL); Ki [13]: 6280 nM; Selectivity Index [14]: 275 to 1920; Selectivity Index [15]: 275 to 1920; Selectivity Index [16]: 275 to 1920; Selectivity Index [17]: 275 to 1920; Drug metabolism [21]: Metabolite_Detected |
